From patent US20090247646A1, “USE OF RESVERATROL AND DERIVATIVES THEREOF FOR PROMOTING THE WELLNESS STATE IN MAMMALS” (priority 2006, published 2009)

System: gene expression profile of heart, output variable Age
Assay: Classification of gene expression profile for age (Young/Old) using supervised learning, Support Vector Machine
Assay type: in vivo, mice
Method: Male B6C3F, mice (6-7 weeks of age) were purchased from Harlan Sprague Dawley. Mice were housed singly and provided water ad libitum. The control group (OC, N=5) was fed 98 kcal/week of modified AIN-93M semi-purified diet (Bio-serv, Frenchtown, N.J.), which provides approximately 15% fewer calories than the average ad libitum dietary intake. The treatment group (RES, N=5) was fed the same caloric intake as controls, but were supplemented with resveratrol 50 mg/kg diet (w/w) (3,4′,5-Trihydroxy-trans-stilbene; Sigma) from 14 months of age. Animals (OC and RES) were sacrificed at 30 months of age. Young animals were sacrificed at 5 months of age (YC, N=5). Hearts from all abovementioned groups were collected, immediately frozen in liquid nitrogen and stored at −80° C. until analysis.
Total RNA was extracted from frozen tissue by using TRIZOL reagent (Life Technologies, Grand Island, N.Y.). Polyadenylate [poly(A)^+] RNA was purified from total RNA with oligo-dT-linked oligotex resin (Qiagen, Valencia, Calif.). […]
For the classification analysis, supervised learning using Support Vector Machine (SVM) was performed based on supplied training data, “Young (YC)” and “Old (OC)” groups, to find rules for predicting the output variable “Age”. […] Results from the resveratrol group were then analysed using the Classification function for prediction of the output variable, “Age”. […]

Oc1ccc(/C=C/c2cc(O)cc(O)c2)cc1 [resveratrol, 3,4′,5-Trihydroxy-trans-stilbene]
Classification of chips for output variable Age (all 4 chips of resveratrol group): classified as Young | Average of g (mean classification output of group) (mean of 4 chips of the RES group, YC 0.9998575, OC −1.023992): 0.3486
